Experiments:
Test in all cases: relative viability (nuclei count vs DMSO), 5 days (fraction); higher = more cells survive
Dovitinib + Luminespib = compound: CN1CCN(c2ccc3nc(-c4c(N)c5c(F)cccc5[nH]c4=O)[nH]c3c2)CC1 [Dovitinib] + CCNC(=O)c1noc(-c2cc(C(C)C)c(O)cc2O)c1-c1ccc(CN2CCOCC2)cc1 [Luminespib] (partner 0.01 µM)
Outline: (§1)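 Relative viability divides the nuclei count in treated wells by that in vehicle wells. Lung cancer cell lines were seeded in 1536-well plates, dosed by pin tool the next day, and fixed and stained after 5 days in one step with final 0.05% Triton X-100, 1% formaldehyde and 1 ug/ml Hoechst. Dosing was a single drug or a fixed anchor-drug dose plus five library-drug doses (not always all listed) in √10 steps, and values are medians of duplicate plates imaged at 4×.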

Dovitinib + Bortezomib = compound: CN1CCN(c2ccc3nc(-c4c(N)c5c(F)cccc5[nH]c4=O)[nH]c3c2)CC1 [Dovitinib] + CC(C)C[C@H](NC(=O)[C@H](Cc1ccccc1)NC(=O)c1cnccn1)B(O)O [Bortezomib] (partner 0.002 µM)
Outline: as §1

Dovitinib + Dasatinib = compound: CN1CCN(c2ccc3nc(-c4c(N)c5c(F)cccc5[nH]c4=O)[nH]c3c2)CC1 [Dovitinib] + Cc1nc(Nc2ncc(C(=O)Nc3c(C)cccc3Cl)s2)cc(N2CCN(CCO)CC2)n1 [Dasatinib] (partner 0.075 µM)
Outline: as §1

Dovitinib + Palbociclib = compound: CN1CCN(c2ccc3nc(-c4c(N)c5c(F)cccc5[nH]c4=O)[nH]c3c2)CC1 [Dovitinib] + CC(=O)c1c(C)c2cnc(Nc3ccc(N4CCNCC4)cn3)nc2n(C2CCCC2)c1=O [Palbociclib] (partner 0.5 µM)
Outline: as §1

Cell Line	relative viability (Dovitinib + Luminespib; first compound 0.02 µM)	relative viability (Dovitinib + Luminespib; first compound 0.06325 µM)	relative viability (Dovitinib + Luminespib; first compound 0.2 µM)	relative viability (Dovitinib + Luminespib; first compound 0.6325 µM)	relative viability (Dovitinib + Luminespib; first compound 2 µM)	relative viability (Dovitinib + Bortezomib; first compound 0.02 µM)	relative viability (Dovitinib + Bortezomib; first compound 0.06325 µM)	relative viability (Dovitinib + Bortezomib; first compound 0.2 µM)	relative viability (Dovitinib + Bortezomib; first compound 0.6325 µM)	relative viability (Dovitinib + Bortezomib; first compound 2 µM)	relative viability (Dovitinib + Dasatinib; first compound 0.02 µM)	relative viability (Dovitinib + Dasatinib; first compound 0.06325 µM)	relative viability (Dovitinib + Dasatinib; first compound 0.2 µM)	relative viability (Dovitinib + Dasatinib; first compound 0.6325 µM)	relative viability (Dovitinib + Dasatinib; first compound 2 µM)	relative viability (Dovitinib + Palbociclib; first compound 0.02 µM)	relative viability (Dovitinib + Palbociclib; first compound 0.06325 µM)	relative viability (Dovitinib + Palbociclib; first compound 0.2 µM)	relative viability (Dovitinib + Palbociclib; first compound 0.6325 µM)	relative viability (Dovitinib + Palbociclib; first compound 2 µM)
NCI-H661	0.87	0.93	0.924	0.936	0.975	0.852	0.746	0.937	0.934	0.85	0.85	0.829	1.01	0.984	0.936	0.414	0.453	0.429	0.426	0.432
NCI-H1993	0.873	0.716	0.816	0.728	0.346	1.42	1.14	1.05	1.13	0.941	0.748	0.634	0.599	0.684	0.261	0.856	0.721	0.639	0.547	0.66
NCI-H1437	1.07	1.12	1.13	0.985	1.07	0.471	0.575	0.493	0.49	0.523	0.414	0.397	0.353	0.39	0.452	0.305	0.301	0.321	0.32	0.321
UMC-11	0.964	1.03	0.979	1	0.996	0.77	0.669	0.881	0.81	0.668	0.423	0.481	0.492	0.493	0.492	0.334	0.34	0.346	0.343	0.348
201T	0.924	1.04	1.02	1.09	1.01	1.05	1.04		1.1	1.09	0.571	0.565	0.581	0.566	0.538	0.366	0.379	0.341	0.371	0.367
ChaGo-K-1	0.631	0.627	0.567	0.609	0.628	1.1	1.01	0.952	1.04	1.03	0.632	0.559	0.603	0.595	0.526	0.927	0.936	0.866	0.912	0.881
NCI-H1650	0.199	0.192	0.199	0.189	0.19	0.209	0.206	0.201	0.189	0.203	0.335	0.26	0.365	0.348	0.384	0.392	0.338	0.328	0.349	0.386
LOU-NH91	0.322	0.308	0.335	0.327	0.349	0.433	0.502	0.479	0.585	0.401	0.586	0.553	0.549	0.64	0.574	0.526	0.528	0.535	0.553	0.525

From the supplement of paper PMC10307832
